From patent publication US11492359B2, “Near-infrared nerve-sparing fluorophores” (OREGON HEALTH & SCIENCE UNIVERSITY, priority 2018, dated 2022)

Assay: UV-Vis absorption and fluorescence spectroscopy of the Oxazine library
Type: physicochemical
Details: for Extinction coefficient: Beer's Law plots; for Quantum yield: relative, references Oxazine 1, Oxazine 170, Rhodamine 101
Procedure: All reagents were purchased from Sigma Aldrich, Fisher Scientific, TCI, or Ark Pharm. Unless otherwise indicated, all commercially available starting materials were used directly without further purification. Analytical thin layer chromatography (TLC) was performed on Millipore ready-to-use plates with silica gel 60 (F254, 32-63 μm). Flash chromatography was performed on Sorbent Technologies silica gel for column chromatography or on a Biotage Isolera Flash System using SNAP Ultra cartridges. High-resolution mass spectra (HRMS) were measured on a ThermoElectron LTQ-Orbitrap high resolution mass spectrometer with a dedicated Accela HPLC system, or an Agilent 6244 time-of-flight LCMS with diode array detector VL+. LCMS and Purity Characterization Mass-to-charge ratio and purity of the Oxazine compounds were characterized on an Agilent 6244 time-of-flight tandem liquid chromatography mass spectroscopy (LCMS) with diode array detector VL+. Sample (10 μL) was injected into a C18 column (Poroshell 120, 4.6×50 mm, 2.7 micron), and eluted with a solvent system of A (H2O, 0.1% FA) and B (MeCN, 01.% FA) at 0.4 mL/min, from A/B=90/10 to 5/95 over 10 min, maintained at A/B=5/95 for additional 5 min. Ions were detected in positive ion mode by setting the capillary voltage at 4 kV and gas temperature at 350° C. Purity was calculated through area under the curve analysis of the absorbance at 254 nm. UV-Vis Absorption and Fluorescence Spectroscopy. UV-Vis spectra were collected with a Cary 50 UV-Vis spectrophotometer at room temperature, using a 1-cm quartz cuvette. Fluorescence spectra were collected on a Cary Eclipse fluorescence spectrophotometer (Agilent Technologies). All absorbance spectra were reference corrected. Extinction coefficient was calculated from Beer's Law plots of absorbance versus concentration. Fluorescence spectra were corrected for the wavelength dependent response of the R928 photomultiplier tube using a manufacturer generated correction file. Relative quantum yields are reported as the average of multiple measurements using multiple references, including Oxazine 1, Oxazine 170, and Rhodamine 101. Physicochemical Property Calculation. Physicochemical partition coefficients (Log D) values at pH 7.4, number of hydrogen bond donors and acceptors, polar surface area, and the number of rotatable bonds were calculated using Marvin and JChem calculator plugins (ChemAxon, Budapest, Hungary). Nerve-Specificity Screening using Direct/Topical Administration Each compound was screened for its tissue-specificity using a previously published direct/topical administration strategy in murine brachial plexus and sciatic nerves.^1 Each compound from the Oxazine library was formulated in the previously utilized co-solvent formulation (10% DMSO, 5% Kolliphor, 65% serum and 20% phosphate buffered saline) at 125 μM. 100 μL of the formulated Oxazine were incubated on the exposed brachial plexus or sciatic nerve for 5 minutes. The fluorophore containing solution was removed and the area was irrigated with saline 18 times to remove any unbound fluorophore. Co-registered fluorescence and color images were collected of each stained area 30 minutes after Oxazine direct/topical administration using a custom built macroscopic imaging system with 620/60 nm excitation and 700/75 nm bandpass emission filters. Custom written MatLab code was used to analyze the tissue specific fluorescence where regions of interest were selected on the nerve, muscle and adipose tissue using the white light images. These regions of interest were then analyzed on the co-registered matched fluorescence images permitting assessment of the nerve to muscle and nerve to adipose ratios in blinded manner. […]

Compound | Max Abs | Max Em | Max Ex | Extinction coefficient | Quantum yield
CC/N=c1/cc2oc3cc(NCC)c(F)cc3nc-2cc1C [LGW05-81, (Z)—N-(7-(ethylamino)-8-fluoro-2-methyl-3H-phenoxazin-3-ylidene)ethanaminium] | 611 nm | 632 nm | 610 nm | 58410 M⁻¹ cm⁻¹ | 43.02%
CC/N=c1/cc2oc3cc(NCC)ccc3nc-2cc1C [LGW01-18, (Z)—N-(7-(ethylamino)-2-methyl-3H-phenoxazin-3-ylidene)ethanaminium] | 617 nm | 636 nm | 620 nm | 60731 M⁻¹ cm⁻¹ | 32.91%
CCNc1cc(C)c2nc3ccc(=[N+](CC)CC)cc-3oc2c1 [LGW02-61, N-ethyl-N-(7-(ethylamino)-9-methyl-3H-phenoxazin-3-ylidene)ethanaminium] | 630 nm | 658 nm | 635 nm | 68548 M⁻¹ cm⁻¹ | 6.12%
CC/N=c1/cc2oc3cc4c(cc3nc-2cc1C)CCN4CC [LGW05-76, (Z)—N-(1-ethyl-7-methyl-2,3-dihydropyrrolo[3,2-b]phenoxazin-8(1H)-ylidene)ethanaminium] | 628 nm | 650 nm | 630 nm | 45449 M⁻¹ cm⁻¹ | 32.68%
CC/N=c1/cc2oc3cc4c(cc3nc-2cc1C)CCCN4CC [LGW02-91, (Z)—N-(1-ethyl-8-methyl-1,2,3,4-tetrahydro-9H-pyrido[3,2-b]phenoxazin-9-ylidene)ethanaminium] | 640 nm | 657 nm | 645 nm | 59971 M⁻¹ cm⁻¹ | 23.58%
c1cc2nc3ccc(=[N+]4CCCC4)cc-3oc2cc1N1CCCC1 [LGW03-31, 1-(7-(pyrrolidin-1-yl)-3H-phenoxazin-3-ylidene)pyrrolidin-1-ium] | 655 nm | 674 nm | 655 nm | 48226 M⁻¹ cm⁻¹ | 15.78%
CC/N=c1/cc2oc3cc4c(cc3nc-2cc1C)CCCN4 [LGW03-12, (Z)—N-(8-methyl-1,2,3,4-tetrahydro-9H-pyrido[3,2-b]phenoxazin-9-ylidene)ethanaminium] | 624 nm | 638 nm | 630 nm | 40041 M⁻¹ cm⁻¹ | 27.22%
CC[N+](CC)=c1ccc2nc3cc4c5c(c3oc-2c1)CCCN5CCC4 [LGW02-86, N-ethyl-N-(2,3,6,7-tetrahydro-1H,5H,12H-quinolizino[1,9-bc]phenoxazin-12-ylidene)ethanaminium] | 661 nm | 680 nm | 665 nm | 39472 M⁻¹ cm⁻¹ | 13.18%
N-ethyl-N-(2,2,4,8-tetramethyl-1,2-dihydro-9H-pyrido[3,2-b]phenoxazin-9-ylidene)ethanaminium [LGW01-56] | 664 nm | 684 nm | 670 nm | 38832 M⁻¹ cm⁻¹ | 11.68%
CCN(CC)c1ccc2nc3ccc(=[N+](CC)CC)cc-3oc2c1.[O-][Cl+3]([O-])([O-])[O-] [OX-1, reference compound] | 655 nm | 671 nm | 660 nm | 93211 M⁻¹ cm⁻¹ | 7.40%
CCN1c2cc3oc4cc(=[N+](CC)CC)ccc-4nc3cc2C(C)=CC1(C)C [LGW03-52, N-ethyl-N-(1-ethyl-2,2,4-trimethyl-1,2-dihydro-9H-pyrido[3,2-b]phenoxazin-9-ylidene)ethanaminium] | 678 nm | 699 nm | 680 nm | 38039 M⁻¹ cm⁻¹ | 6.82%
CC[N+](CC)=c1ccc2nc3cc4c(cc3oc-2c1)NCC4 [LGW03-88, N-(2,3-dihydropyrrolo[3,2-b]phenoxazin-8(1H)-ylidene)-N-ethylethanaminium] | 631 nm | 659 nm | 640 nm | 59737 M⁻¹ cm⁻¹ | 6.22%
CCN1CCCc2cc3nc4ccc(=[N+](CC)CC)cc-4oc3cc21 [LGW02-92, N-ethyl-N-(1-ethyl-1,2,3,4-tetrahydro-9H-pyrido[3,2-b]phenoxazin-9-ylidene)ethanaminium] | 656 nm | 673 nm | 660 nm | 43659 M⁻¹ cm⁻¹ | 9.27%
Cc1cc2nc3cc(C)c(=N)cc-3oc2cc1N [LGW06-14, 7-amino-2,8-dimethyl-3H-phenoxazin-3-iminium] | 590 nm | 606 nm | 590 nm | 39303 M⁻¹ cm⁻¹ | 37.61%
(Z)—N-(7-(dimethylamino)-2-methyl-3H-phenoxazin-3-ylidene)ethanaminium [LGW04-84] | 637 nm | 658 nm | 640 nm | 50981 M⁻¹ cm⁻¹ | 3.95%
c1c2c3c(c4c1N=c1cc5c6c(c1O4)CCC[N+]=6CCC5)CCCN3CCC2 [LGW02-87, 2,3,6,7,12,13,16,17-octahydro-1H,5H,11H,15H-diquinolizino[1,9-bc:1′,9′-hi]phenoxazin-4-ium] | 678 nm | 690 nm | 680 nm | 59937 M⁻¹ cm⁻¹ | 15.03%
CC[N+](CC)=c1ccc2nc3cc4c(cc3oc-2c1)NCCC4 [LGW03-13, N-ethyl-N-(1,2,3,4-tetrahydro-9H-pyrido[3,2-b]phenoxazin-9-ylidene)ethanaminium] | 641 nm | 659 nm | 645 nm | 64045 M⁻¹ cm⁻¹ | 6.49%
c1c2c(cc3c1Oc1cc4c(cc1=N3)OCCN=4)OCCN2 [LGW03-65, 3,8,9,10-tetrahydro-2H-bis([1,4]oxazino)[2,3-b:3′,2′-i]phenoxazin-4-ium] | 629 nm | 643 nm | 630 nm | 28067 M⁻¹ cm⁻¹ | 27.39%
c1c2c(cc3c1N=c1cc4c(cc1O3)=NCCC4)NCCC2 [LGW03-32, 3,4,8,9,10,11-hexahydro-2H-dipyrido[3,2-b:2′,3′-i]phenoxazin-1-ium] | 631 nm | 644 nm | 630 nm | 45650 M⁻¹ cm⁻¹ | 29.92%
